Consider four molecules from patent US4652575A, “2-(ethylene-thio methyl furanyl)amino thiazole derivatives having acid secretion inhibiting activity” (Medosan Industrie Biochimiche Riunite S.p.A., priority 1984, dated 1987).

Read-outs that look alike come from different tables or passages of the source.

The test system of data set [1] is gastric acid secretion. Conditions: experimental tests on animals and humans; prior art; cited from earlier work.
Data set [2] concerns gastric secretion. Nature of the data set: Activity on gastric secretion "in vivo" (volume and total acidity of gastric juice after pylorus tieing, Shay). Conditions: for ED50 / change in vivo at 20 mg/kg: Rattus norvegicus, po; for ED50: read-out: DE50 in rat calculated on total acidity (mEq/4 hours); for Total acidity gastric juice secretion / Volume gastric juice secretion / change in vivo at 20 mg/kg: 20 mg/kg oral. More on the design: species or system male Wistar rats. As for the experimental part:
(§1) The preparations were a solution of the substances in 2.5% citric acid for the "in vitro" test and 5% citric acid for the "in vivo" test respectively. Citric acid was diluted in normal physiologic saline at neutral pH.
The ability of the compounds according to the present invention to inhibit the gastric secretion was studied "in vivo" both by evaluating the volume reduction of gastric juice, and by measuring the total acidity of same after administration of the substances under test according to the Takeda method (see the aforementioned literature).
To this end, tests have been made on male Wistar rats of an average weight of 200 g. The animals, 10 for each substance, were placed into individual cages provided with ground grating in order to avoid coprophagy, without food but with free access to water for 24 hours before test. […] Four hours later the animals were sacrificed and the gastric juice was collected, of which the volume expressed in ml and the total acidity expressed in mEq was measured. The gastric juice ([…] ) was titrated with 0.1N NaOH to pH 7 to determine the acid concentration. The total acidity was then calculated as the product of the total volume of gastric juice by the acid concentration.

Data set [3] concerns the target T1, histamine H2 receptors (Cavia porcellus, UniProt P47747).
T1 construct: tests on insulated atrium auricolas of Guinea pig heart; from tissue; host or cells: isolated guinea pig heart atrium
Nature of the data set: Antagonistic activity to the histamine H2 receptors "in vitro" on insulated atrium auricolas of Guinea pig heart. Conditions: for inhibition at 10 µM / inhibition at 1 µM / inhibition at 0.1 µM: guinea pig, 0.5 h, read-out: Antagonizing activity to histamine H2 receptors; for inhibition at 10 µM: compound 1·10^-5 M/L; for inhibition at 1 µM: compound 1·10^-6 M/L; for inhibition at 0.1 µM: compound 1·10^-7 M/L. As for the experimental part:
as §1
This activity was evaluated "in vitro" by carrying out tests on insulated atrium auricolas of Guinea pig heart. […] Metering was carried out by placing the preparation into a vessel containing a Ringer-Locke solution wherein pure oxygen was bubbling, at a temperature of 37° C. A response of the organ "in vitro" was first established at cumulative histamine doses of 2.5.10^-7, 5.10^-7, 10^-6, 5.10^-6, 10^-5 M/L. After obtaining two constant lines with histamine at a time interval of one hour from one another, the substances under test were added to the bath and after a 30 minutes contact with the preparation, a new histamine response line in the presence of the substance under test was drawn. The activity was tested at various concentrations of the new compounds (10^-5, 10^-6, 10^-7 and in one case 10^-8 M/L).

The target of data set [4] is T1, histamine H2 receptors. Conditions: Daly M. J., Br. J. Pharmac., 72, 49, 1982; cited from earlier work.
A short description of data set [5]: in vivo. Conditions: po. An excerpt:
The animals were kept under observation by checking mortality and possible pain signs for 15 days from start of test.

T1 sequence (P47747 whole entry): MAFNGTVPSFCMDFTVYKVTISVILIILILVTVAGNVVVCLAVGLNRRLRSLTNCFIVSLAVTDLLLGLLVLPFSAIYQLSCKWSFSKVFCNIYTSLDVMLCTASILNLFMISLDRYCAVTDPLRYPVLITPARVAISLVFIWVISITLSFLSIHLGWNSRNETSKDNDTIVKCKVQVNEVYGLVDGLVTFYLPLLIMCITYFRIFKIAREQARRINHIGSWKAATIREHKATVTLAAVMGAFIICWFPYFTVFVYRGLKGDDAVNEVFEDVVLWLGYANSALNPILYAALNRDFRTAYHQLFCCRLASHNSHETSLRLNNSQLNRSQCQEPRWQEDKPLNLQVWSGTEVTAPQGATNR

Consider `CNC(=S)NCCCCc1cnc[nH]1` [Burimamide], for which, in data set [1], the “reduction of gastric acid secretion (in words)” value (from here on “reduction”) is given as “effective to reduce the gastric acid secretion”.
With `CN/C(=N/CCSCc1nc[nH]c1C)NC#N` [Cimetidine, reference compound], the ED50 in data set [2] was 30 mg/kg. Also, the inhibition at 10 µM in data set [3] (histamine 1·10^-5 M/L) amounted to 28%; in data set [3] (histamine 1·10^-6 M/L) it was 100%; in data set [3] (histamine 2,5·10^-7 M/L), 100%; in data set [3] (histamine 5·10^-6 M/L) it was 50%; in data set [3] (histamine 5·10^-7 M/L), 100%. Also, the inhibition at 1 µM is 10% in data set [3] (histamine 1·10^-5 M/L); 90% in data set [3] (histamine 1·10^-6 M/L); 100% in data set [3] (histamine 2,5·10^-7 M/L); 40% in data set [3] (histamine 5·10^-6 M/L); 90% in data set [3] (histamine 5·10^-7 M/L). Also, the inhibition at 0.1 µM in data set [3] (histamine 1·10^-5 M/L) amounted to 0%; in data set [3] (histamine 1·10^-6 M/L), 45%; in data set [3] (histamine 2,5·10^-7 M/L) it was 80%; in data set [3] (histamine 5·10^-6 M/L) it was 22%; in data set [3] (histamine 5·10^-7 M/L), 80%. The “reduction” value in data set [1] is listed as “effective to reduce the gastric acid secretion”. In addition, in data set [4], the “antagonism of histamine induced increase of contraction frequency of the insulated atrium (in words)” value was “competitively antagonize”.
As a reminder, the LD50 is the dose at which mortality reaches 50%. Read a high LD50 as a less toxic substance. As to `CN(C)Cc1ccc(CSCCNc2nc(-c3ccc(Oc4ccccc4)cc3)cs2)o1` [Example No. 13, 2-(2-(((5-(dimethylamino)methyl-2-furanyl)methyl)thio)ethyl)amino-4-(4-phenoxy)phenyl-thiazole], the “Total acidity gastric juice secretion” value in data set [2] (6 hours before pilorus tieing) was 0,09 mEq/4 hours; in data set [2] (12 hours before pilorus tieing), 0,09 mEq/4 hours; in data set [2] (24 hours before pilorus tieing), 0,13 mEq/4 hours; in data set [2] (36 hours before pilorus tieing) it was 0,15 mEq/4 hours. For the same molecule, the “Volume gastric juice secretion” value is recorded as 3,9 ml/4 hours in data set [2] (6 hours before pilorus tieing), 3,9 ml/4 hours in data set [2] (12 hours before pilorus tieing), 4,7 ml/4 hours in data set [2] (24 hours before pilorus tieing) and 5,1 ml/4 hours in data set [2] (36 hours before pilorus tieing). Also, the change in vivo at 20 mg/kg was -47% in data set [2] (6 hours before pilorus tieing, read-out: Total acidity gastric juice secretion, Variation %); -26% in data set [2] (6 hours before pilorus tieing, read-out: Volume gastric juice secretion, Variation %); -40% in data set [2] (12 hours before pilorus tieing, read-out: Total acidity gastric juice secretion, Variation %); -23% in data set [2] (12 hours before pilorus tieing, read-out: Volume gastric juice secretion, Variation %); -23% in data set [2] (24 hours before pilorus tieing, read-out: Total acidity gastric juice secretion, Variation %); -16% in data set [2] (24 hours before pilorus tieing, read-out: Volume gastric juice secretion, Variation %). Besides, the change in vivo at 20 mg/kg in data set [2] (36 hours before pilorus tieing, read-out: Total acidity gastric juice secretion, Variation %) was -6%; in data set [2] (36 hours before pilorus tieing, read-out: Volume gastric juice secretion, Variation %) it was -9%. Also, the ED50 in data set [2] (per os, 1 hour before pilorus tieing) was 2.6 mg/kg. The “ability to reduce the gastric acid secretion (in words)” value in data set [2] (volume and total acidity of gastric juice) is “interesting ability”. Besides, the inhibition at 10 µM in data set [3] (histamine 1·10^-5 M/L) is 90%; in data set [3] (histamine 1·10^-6 M/L), 95%; in data set [3] (histamine 2,5·10^-7 M/L) it was 100%; in data set [3] (histamine 5·10^-6 M/L), 90%; in data set [3] (histamine 5·10^-7 M/L) it was 100%. In addition, the inhibition at 1 µM in data set [3] (histamine 1·10^-5 M/L) worked out at 38%; in data set [3] (histamine 1·10^-6 M/L), 80%; in data set [3] (histamine 2,5·10^-7 M/L), 90%; in data set [3] (histamine 5·10^-6 M/L) it was 65%; in data set [3] (histamine 5·10^-7 M/L) it was 90%. For the same molecule, the inhibition at 0.1 µM amounted to 40% in data set [3] (histamine 1·10^-5 M/L); 50% in data set [3] (histamine 1·10^-6 M/L); 90% in data set [3] (histamine 2,5·10^-7 M/L); 30% in data set [3] (histamine 5·10^-6 M/L); 70% in data set [3] (histamine 5·10^-7 M/L). In addition, the “antagonistic action to the histamine H2 receptors (in words)” value in data set [3] (in vitro) is reported as “interesting ability”. In data set [5] (mouse), this molecule registered an LD50 at 360 h of 3000 mg/kg. In addition, the LD50 in data set [5] (rat) is greater than 3000 mg/kg.
For the molecule `C/N=C(\S)NCCSCc1[nH]cnc1C` [Metiamide], the “reduction” value in data set [1] is “effective to reduce the gastric acid secretion”.
